Measurements published in US7625908B2, “Quinazoline derivatives” (AstraZeneca AB, priority 2003, dated 2009).

What was measured:
EGFR tyrosine kinase = molecular target: T1, EGFR tyrosine kinase (Homo sapiens, UniProt P00533); test: Protein tyrosine kinase phosphorylation assay, Test (a), EGFR; type: biochemical; details: recombinant intracellular fragment, ATP at Km; read-out: IC50 (μM) Test (a): Inhibition of EGFR tyrosine kinase protein phosphorylation
T1 construct: Recombinant intracellular fragments of EGFR, erbB2 and erbB4; made in house; host or cells: baculovirus/Sf21 insect cells (cleared lysate used)
T1 sequence (P00533 669-1210 limits assumed): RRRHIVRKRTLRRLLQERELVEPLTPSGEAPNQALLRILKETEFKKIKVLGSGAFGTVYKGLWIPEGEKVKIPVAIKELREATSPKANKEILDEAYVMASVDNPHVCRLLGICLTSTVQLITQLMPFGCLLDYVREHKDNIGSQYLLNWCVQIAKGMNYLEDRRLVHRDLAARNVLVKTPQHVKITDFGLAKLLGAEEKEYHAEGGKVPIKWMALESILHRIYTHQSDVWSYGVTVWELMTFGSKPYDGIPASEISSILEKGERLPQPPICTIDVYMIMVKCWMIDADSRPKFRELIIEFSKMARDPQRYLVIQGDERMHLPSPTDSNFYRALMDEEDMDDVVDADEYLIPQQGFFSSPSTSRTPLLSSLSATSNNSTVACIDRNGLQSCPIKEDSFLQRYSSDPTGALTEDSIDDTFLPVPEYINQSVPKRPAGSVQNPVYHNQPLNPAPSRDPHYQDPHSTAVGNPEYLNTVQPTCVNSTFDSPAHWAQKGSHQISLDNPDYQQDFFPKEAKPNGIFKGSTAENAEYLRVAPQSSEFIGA
Protocol: (§1) a) Protein Tyrosine Kinase phosphorylation Assays
(§2) This test measures the ability of a test compound to inhibit the phosphorylation of a tyrosine containing polypeptide substrate by an erb receptor tyrosine kinase enzyme.
(§3) Recombinant intracellular fragments of EGFR, erbB2 and erbB4 (accession numbers X00588, X03363 and L07868 respectively) were cloned and expressed in the baculovirus/Sf21 system. Lysates were prepared from these cells by treatment with ice-cold lysis buffer (20 mM N-2-hydroxyethylpiperizine-N′-2-ethanesulfonic acid (HEPES) pH7.5, 150 mM NaCl, 10% glycerol, 1% Triton X-100, 1.5 mM MgCl2, 1 mM ethylene glycol-bis(β-aminoethyl ether) N′,N′,N′,N′-tetraacetic acid (EGTA), plus protease inhibitors and then cleared by centrifugation.
(§4) Constitutive kinase activity of these recombinant proteins was determined by their ability to phosphorylate a synthetic peptide (made up of a random co-polymer of Glutamic Acid, Alanine and Tyrosine in the ratio of 6:3:1). Specifically, Maxisorb™ 96-well immunoplates were coated with synthetic peptide (0.2 μg of peptide in a 200 μl phosphate buffered saline (PBS) solution and incubated at 4° C. overnight). Plates were washed in 50 mM HEPES pH 7.4 at room temperature to remove any excess unbound synthetic peptide. […]
(§5) The immobilised phospho-peptide product of the reaction was detected by immunological methods. […] After further washing, HRP activity in each well of the plate was measured colorimetrically using 22′-Azino-di-[3-ethylbenzthiazoline sulfonate (6)]diammonium salt crystals (ABTS™ from Roche) as a substrate.
(§6) Quantification of colour development and thus enzyme activity was achieved by the measurement of absorbance at 405 nm on a Molecular Devices ThermoMax microplate reader. Kinase inhibition for a given compound was expressed as an IC50 value. […] The range of phosphorylation was calculated from the positive (vehicle plus ATP) and negative (vehicle minus ATP) control values.

erbB2 tyrosine kinase = molecular target: T2, erbB2 tyrosine kinase (Homo sapiens, UniProt P04626); test: Protein tyrosine kinase phosphorylation assay, Test (a), erbB2; type: biochemical; details: recombinant intracellular fragment, ATP at Km; read-out: IC50 (μM) Test (a): Inhibition of erbB2 tyrosine kinase protein phosphorylation
T2 construct: Recombinant intracellular fragments of EGFR, erbB2 and erbB4; made in house; host or cells: baculovirus/Sf21 insect cells (cleared lysate used)
T2 sequence (P04626 676-1255 limits assumed): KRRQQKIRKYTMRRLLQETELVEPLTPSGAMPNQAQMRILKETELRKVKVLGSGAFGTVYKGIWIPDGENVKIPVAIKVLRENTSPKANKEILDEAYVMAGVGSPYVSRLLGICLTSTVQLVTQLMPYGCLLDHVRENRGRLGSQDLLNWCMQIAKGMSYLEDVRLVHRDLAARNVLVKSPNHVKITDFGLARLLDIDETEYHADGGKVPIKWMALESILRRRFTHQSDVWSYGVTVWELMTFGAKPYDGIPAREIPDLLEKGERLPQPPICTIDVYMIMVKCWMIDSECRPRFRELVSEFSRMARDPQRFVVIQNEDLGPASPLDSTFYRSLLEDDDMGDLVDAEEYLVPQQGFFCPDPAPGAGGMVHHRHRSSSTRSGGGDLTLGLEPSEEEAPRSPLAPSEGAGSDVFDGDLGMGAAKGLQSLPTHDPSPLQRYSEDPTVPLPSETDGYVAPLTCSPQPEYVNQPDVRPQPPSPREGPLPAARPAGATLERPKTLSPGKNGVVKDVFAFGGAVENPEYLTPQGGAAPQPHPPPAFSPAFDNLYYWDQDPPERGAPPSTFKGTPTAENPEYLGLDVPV
Protocol: as §1, §2, §3, §4, §5, §6

[1] = molecular target: T3, erbB2 in a MCF7 derived cell line (Clone 24 cells) (Homo sapiens, UniProt P04626); test: Clone 24 phospho-erbB2 cell assay, Test (d); type: cell-based; details: 4 hours, read-out: IC50 (μM) Test (d): Inhibition of erbB2 tyrosine kinase protein phosphorylation
T3 construct: to give a cell line that overexpresses full length wild type erbB2 protein; expressed in transfected cells
T3 sequence (P04626 23-1255): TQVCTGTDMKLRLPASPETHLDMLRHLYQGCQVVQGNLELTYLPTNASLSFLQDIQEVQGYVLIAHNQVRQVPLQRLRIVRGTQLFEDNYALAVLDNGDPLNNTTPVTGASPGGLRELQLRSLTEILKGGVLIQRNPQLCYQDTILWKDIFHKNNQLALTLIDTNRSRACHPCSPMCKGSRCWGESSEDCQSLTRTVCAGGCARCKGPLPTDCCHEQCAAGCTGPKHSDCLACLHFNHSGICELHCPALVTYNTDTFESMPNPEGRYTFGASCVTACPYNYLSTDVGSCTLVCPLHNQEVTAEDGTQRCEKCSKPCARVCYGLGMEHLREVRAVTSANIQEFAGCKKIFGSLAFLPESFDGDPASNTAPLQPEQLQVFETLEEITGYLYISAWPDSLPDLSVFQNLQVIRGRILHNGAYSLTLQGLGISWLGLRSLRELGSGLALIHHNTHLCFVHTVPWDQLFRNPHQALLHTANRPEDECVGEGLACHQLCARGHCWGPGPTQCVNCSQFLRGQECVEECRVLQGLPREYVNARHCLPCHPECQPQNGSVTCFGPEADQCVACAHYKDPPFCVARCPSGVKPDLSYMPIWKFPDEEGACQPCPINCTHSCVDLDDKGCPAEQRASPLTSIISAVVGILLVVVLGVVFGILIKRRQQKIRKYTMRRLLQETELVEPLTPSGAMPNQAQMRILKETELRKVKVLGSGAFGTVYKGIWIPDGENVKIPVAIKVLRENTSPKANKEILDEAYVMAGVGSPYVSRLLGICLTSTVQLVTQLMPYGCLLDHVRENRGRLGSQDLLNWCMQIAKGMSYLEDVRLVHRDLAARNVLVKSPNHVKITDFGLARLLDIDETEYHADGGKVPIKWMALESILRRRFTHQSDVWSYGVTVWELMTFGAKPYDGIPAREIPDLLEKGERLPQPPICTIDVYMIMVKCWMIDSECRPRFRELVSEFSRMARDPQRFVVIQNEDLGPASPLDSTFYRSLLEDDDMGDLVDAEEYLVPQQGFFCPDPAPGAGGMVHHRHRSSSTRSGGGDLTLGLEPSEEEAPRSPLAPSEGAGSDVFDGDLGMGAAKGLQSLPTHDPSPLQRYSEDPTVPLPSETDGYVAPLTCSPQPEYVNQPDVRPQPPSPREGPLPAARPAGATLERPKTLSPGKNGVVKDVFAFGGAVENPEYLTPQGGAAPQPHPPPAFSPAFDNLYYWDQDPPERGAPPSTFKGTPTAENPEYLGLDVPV
Protocol: d) Clone 24 Phospho-erbB2 Cell Assay
This immunofluorescence end point assay measures the ability of a test compound to inhibit the phosphorylation of erbB2 in a MCF7 (breast carcinoma) derived cell line which was generated by transfecting MCF7 cells with the full length erbB2 gene using standard methods to give a cell line that overexpresses full length wild type erbB2 protein (hereinafter ‘Clone 24’ cells).
Clone 24 cells were cultured in Growth Medium (phenol red free Dulbecco's modified Eagle's medium (DMEM) containing 10% foetal bovine serum, 2 mM glutamine and 1.2 mg/ml G418) in a 7.5% CO2 air incubator at 37° C. Cells were harvested from T75 stock flasks by washing once in PBS (phosphate buffered saline, pH7.4, Gibco No. 10010-015) and harvested using 2 mls of Trypsin (1.25 mg/ml)/ethylaminediaminetetraacetic acid (EDTA) (0.8 mg/ml) solution. The cells were resuspended in Growth Medium. Cell density was measured using a haemocytometer and viability was calculated using Trypan Blue solution before being further diluted in Growth Medium and seeded at a density of 1×10^4 cells per well (in 10 ul) into clear bottomed 96 well plates (Packard, No. 6005182).
3 days later, Growth Medium was removed from the wells and replaced with 100 ul Assay Medium (phenol red free DMEM, 2 mM glutamine, 1.2 mg/ml G418) either with or without erbB inhibitor compound. Plates were returned to the incubator for 4 hours and then 20 μl of 20% formaldehyde solution in PBS was added to each well and the plate was left at room temperature for 30 minutes. This fixative solution was removed with a multichannel pipette, 100 μl of PBS was added to each well and then removed with a multichannel pipette and then 50 μl PBS was added to each well. Plates were then sealed and stored for up to 2 weeks at 4° C.
Immunostaining was performed at room temperature. […]
The Fluorescence signal is each well was measured using an Acumen Explorer Instrument (Acumen Bioscience Ltd.), a plate reader that can be used to rapidly quantitate features of images generated by laser-scanning. […]

Row | SMILES | IC50 (EGFR tyrosine kinase) | IC50 (erbB2 tyrosine kinase) | IC50 [1]
1 | O=C(CO)N(CCOc1cccc2ncnc(Nc3ccc(OCc4ccccn4)c(Cl)c3)c12)C1CCOCC1 [Example 21, N-{2-[(4-{[3-Chloro-4-(pyridin-2-ylmethoxy)phenyl]amino}quinazolin-5-yl)oxy]ethyl}-2-hydroxy-N-(tetrahydro-2H-pyran-4-yl)acetamide] | 0.414 µM | 0.002 µM | 0.009 µM
2 | CC(=O)N(C)C[C@@H](C)Oc1cccc2ncnc(Nc3ccc(Oc4ccc(C)nc4)c(C)c3)c12 [Example 104, N-Methyl-N-((2R)-2-{[4-({3-methyl-4-[(6-methylpyridin-3-yl)oxy]phenyl}amino)quinazolin-5-yl]oxy}propyl)acetamide] | 1.88 µM | 0.017 µM | 0.021 µM
3 | CC(O)C(=O)N(C)CCOc1cccc2ncnc(Nc3ccc(OCc4ccccn4)c(Cl)c3)c12 (stereo not drawn) [Example 28, N-{2-[(4-{[3-Chloro-4-(pyridin-2-ylmethoxy)phenyl]amino}quinazolin-5-yl)oxy]ethyl}-2-hydroxy-N-methylpropanamide] | 0.197 µM | 0.002 µM | 0.112 µM
